US7332617B2, “Process for the preparation of docetaxel trihydrate” (Shanghai Desano Chemical Pharmaceutical Co., Ltd., priority 2003, dated 2008)

Columns and labels:
[1] = stability test at 40° C., relative humidity 75%, 12 months; assay type: physicochemical; settings: relative humidity of 75%
Method: The experiment conditions for testing the stability are: under temperature of 40° C., at relative humidity of 75%, 12 months. Within this period, the trihydrate compound remain no change.

[2] = according to Chinese patent 95193984.X; cited from earlier work
[3] = exposure in light (purity); assay type: physicochemical; settings: exposed in light for 10 hours
Description: It is sensitive to light in some way. Shortening of the filtration time decreased the exposure time, thus the reduction of purity was avoided.

[4] = stability in high temperature; assay type: physicochemical
Method: 2. Lower operation temperature (below 40° C.). As Docetaxel's stability is bad in high temperature, this will help to avoid any purity drop of Docetaxel in purification process.

[5] = system: transferring breast cancer; settings: cited from earlier work

Row | stability [1] | purity on exposure in light [3] | stability in high temperature [4] | SMILES | stability compared with anhydrous compound [2] | CR (Complete Resultful) ([5]; one research report) [%] | total chemotherapy efficiency of single Docetaxel ([5]; phase II clinical trial, patients who have received chemotherapy, generally 100 mgs/m^2, infusion, once per 3 weeks) [%]
1 | no change | – | – | CC(=O)O[C@@]12CO[C@@H]1C[C@H](O)[C@@]1(C)C(=O)[C@H](O)C3=C(C)[C@@H](OC(=O)[C@H](O)[C@@H](NC(=O)OC(C)(C)C)c4ccccc4)C[C@@](O)([C@@H](OC(=O)c4ccccc4)[C@H]21)C3(C)C [Docetaxel trihydrate, (2′R,3′S)-N-carboxy-3-phenylisoserine, N-tert-butyl ester, 13-ester with 5β,20-epoxy-1β,2α,4α,7β,10β,13α-hexahydroxytax-11-en-9-one 4-acetate-2-benzoate, trihydrate] | more stable than its anhydrous compound | – | –
2 | – | purity dropped | bad | CC(=O)O[C@@]12CO[C@@H]1C[C@H](O)[C@@]1(C)C(=O)[C@H](O)C3=C(C)[C@@H](OC(=O)[C@H](O)[C@@H](NC(=O)OC(C)(C)C)c4ccccc4)C[C@@](O)([C@@H](OC(=O)c4ccccc4)[C@H]21)C3(C)C [Docetaxel] | – | 4 | 47
